From ChEMBL document CHEMBL3046369, “Synthesis of novel optically pure -amino acid functionalised-7-trifluoromethyl substituted quinolone derivatives and their antibacterial activity” (2013)

Columns and labels:
Type in all cases: functional
Bacillus subtilis = assay: Antibacterial activity against Bacillus subtilis assessed as growth inhibition by microtitration method
Pseudomonas aeruginosa = assay: Antibacterial activity against Pseudomonas aeruginosa assessed as growth inhibition by microtitration method
Escherichia coli = assay: Antibacterial activity against Escherichia coli assessed as growth inhibition by microtitration method
Staphylococcus aureus = assay: Antibacterial activity against Staphylococcus aureus assessed as growth inhibition by microtitration method
[1] = test system: Staphylococcus epidermidis; assay: Antibacterial activity against Staphylococcus epidermidis assessed as growth inhibition by microtitration method
Klebsiella aerogenes = assay: Antibacterial activity against Enterobacter aerogenes assessed as growth inhibition by microtitration method

Compound | MIC (Bacillus subtilis) [µg/mL] | MIC (Pseudomonas aeruginosa) [µg/mL] | MIC (Escherichia coli) [µg/mL] | MIC (Staphylococcus aureus) [µg/mL] | MIC [1] [µg/mL] | MIC (Klebsiella aerogenes) [µg/mL]
CCn1cc(C(=O)N[C@@H](Cc2ccccc2)C(=O)O)c(=O)c2ccc(C(F)(F)F)cc21 | 50 | 3.12 | 12.5 | 12.5 | 3.12 | 6.25
CCn1cc(C(=O)N[C@H](Cc2ccccc2)C(=O)O)c(=O)c2ccc(C(F)(F)F)cc21 | 25 | 25 | 25 | 25 | 25 | 12.5
CCn1cc(C(=O)N2CCC[C@H]2C(=O)O)c(=O)c2ccc(C(F)(F)F)cc21 | 25 | 6.25 | 12.5 | 25 | 6.25 | 6.25
CCOC(=O)[C@@H]1CCCN1C(=O)c1cn(CC)c2cc(C(F)(F)F)ccc2c1=O | 50 | 6.25 | 25 | 25 | 25 | 12.5
C[C@H](NC(=O)c1cnc2cc(C(F)(F)F)ccc2c1O)C(=O)O | 50 | 25 | 25 | 25 | 25 | 50
CC(C)[C@H](NC(=O)c1cnc2cc(C(F)(F)F)ccc2c1O)C(=O)O | 50 | 25 | 25 | 25 | 25 | 25
CC[C@@H](C)[C@H](NC(=O)c1cnc2cc(C(F)(F)F)ccc2c1O)C(=O)O | 50 | 25 | 25 | 25 | 25 | 25
CC(C)C[C@H](NC(=O)c1cnc2cc(C(F)(F)F)ccc2c1O)C(=O)O | 50 | 25 | 25 | 25 | 25 | 25
O=C(N[C@@H](Cc1ccccc1)C(=O)O)c1cnc2cc(C(F)(F)F)ccc2c1O | 50 | 25 | 25 | 12.5 | 25 | 25
C[C@@H](NC(=O)c1cnc2cc(C(F)(F)F)ccc2c1O)C(=O)O | 50 | 6.12 | 25 | 25 | 12.5 | 25
O=C(N[C@H](Cc1ccccc1)C(=O)O)c1cnc2cc(C(F)(F)F)ccc2c1O | 50 | 6.12 | 25 | 25 | 25 | 12.5
O=C(O)[C@@H]1CCCN1C(=O)c1cnc2cc(C(F)(F)F)ccc2c1O | 50 | 25 | 25 | 25 | 50 | 25
O=C(O)c1cn(C2CC2)c2cc(N3CCNCC3)c(F)cc2c1=O [CIPROFLOXACIN] | 0.048 | 0.012 | – | 0.048 | 0.012 | 0.012

Second part, the molecule after the results:

MIC (Bacillus subtilis) [µg/mL] | MIC (Pseudomonas aeruginosa) [µg/mL] | MIC (Escherichia coli) [µg/mL] | MIC (Staphylococcus aureus) [µg/mL] | MIC [1] [µg/mL] | MIC (Klebsiella aerogenes) [µg/mL] | Compound
25 | 25 | 25 | 25 | 25 | 25 | CCOC(=O)[C@@H](Cc1ccccc1)NC(=O)c1cn(CC)c2cc(C(F)(F)F)ccc2c1=O
25 | 6.25 | 12.5 | 25 | 6.25 | 12.5 | CCn1cc(C(=O)N[C@@H](CC(C)C)C(=O)O)c(=O)c2ccc(C(F)(F)F)cc21
50 | 12.5 | 12.5 | 25 | 25 | 25 | CCn1cc(C(=O)N[C@H](C)C(=O)O)c(=O)c2ccc(C(F)(F)F)cc21
50 | 25 | 12.5 | 12.5 | 6.25 | 12.5 | CCn1cc(C(=O)N[C@@H](C)C(=O)O)c(=O)c2ccc(C(F)(F)F)cc21
50 | 6.25 | 12.5 | 12.5 | 6.25 | 3.12 | CCn1cc(C(=O)N[C@H](C(=O)O)C(C)C)c(=O)c2ccc(C(F)(F)F)cc21
25 | 6.25 | 12.5 | 25 | 6.25 | 12.5 | CC[C@@H](C)[C@H](NC(=O)c1cn(CC)c2cc(C(F)(F)F)ccc2c1=O)C(=O)O
25 | 25 | 25 | 50 | 6.25 | 12.5 | CCOC(=O)[C@H](C)NC(=O)c1cn(CC)c2cc(C(F)(F)F)ccc2c1=O
25 | 25 | 25 | 25 | 25 | 12.5 | CCOC(=O)[C@@H](NC(=O)c1cn(CC)c2cc(C(F)(F)F)ccc2c1=O)C(C)C
50 | 25 | 25 | 25 | 25 | 12.5 | CCOC(=O)[C@@H](NC(=O)c1cn(CC)c2cc(C(F)(F)F)ccc2c1=O)[C@H](C)CC
50 | 6.25 | 25 | 25 | 25 | 12.5 | CCOC(=O)[C@H](CC(C)C)NC(=O)c1cn(CC)c2cc(C(F)(F)F)ccc2c1=O
50 | 6.25 | 12.5 | 25 | 6.25 | 6.25 | CCOC(=O)[C@H](Cc1ccccc1)NC(=O)c1cn(CC)c2cc(C(F)(F)F)ccc2c1=O
25 | 6.12 | 25 | 25 | 25 | 12.5 | CCOC(=O)[C@@H](C)NC(=O)c1cn(CC)c2cc(C(F)(F)F)ccc2c1=O
